Literature values as cited in patent US20110039841A1, “Novel compounds, their preparation and use” (Novo Nordisk A/S, priority 2004, published 2011).

How the values were obtained:
PPARδ = target: T1, PPARδ (Mus musculus, UniProt P35396); details: high fat diet induced insulin resistant mice and diabetic ob/ob; PNAS 2003, 100, 15924-15929
T1 construct: pharmacological treatment of both high fat diet induced insulin resistant mice and diabetic ob/ob with the potent PPARδ agonist GW501516; host or cells: mice (high fat diet induced insulin resistant; ob/ob), in vivo
T1 sequence (P35396 1-440): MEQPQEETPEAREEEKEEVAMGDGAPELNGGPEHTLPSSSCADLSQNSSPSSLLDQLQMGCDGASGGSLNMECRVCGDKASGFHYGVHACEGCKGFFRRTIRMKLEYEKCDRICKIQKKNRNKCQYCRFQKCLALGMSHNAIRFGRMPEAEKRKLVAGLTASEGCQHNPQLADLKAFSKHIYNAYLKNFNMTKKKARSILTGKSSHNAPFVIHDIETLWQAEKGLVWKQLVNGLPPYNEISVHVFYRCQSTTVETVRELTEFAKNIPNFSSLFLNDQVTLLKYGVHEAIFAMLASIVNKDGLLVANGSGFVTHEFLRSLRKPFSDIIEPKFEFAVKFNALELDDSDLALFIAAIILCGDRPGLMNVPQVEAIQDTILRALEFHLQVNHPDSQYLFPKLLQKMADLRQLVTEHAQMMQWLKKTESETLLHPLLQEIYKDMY

C2C12 muscle cells = details: in vitro, BioChem. Biophys. Acta 2003, 1633, 43-50, Mol. Endocrin. 2003, 17, 2477-2493

For Cc1cc(SCc2sc(-c3ccc(C(F)(F)F)cc3)nc2C)ccc1OCC(=O)O [GW501516], the “plasma glucose, insulin and insulin sensitivity” value (PPARδ) is listed as “lowering of plasma glucose and insulin and improved insulin sensitivity” and the “regulation of genes of lipid metabolism and energy expenditure” value (C2C12 muscle cells) is listed as “regulation of genes involved with TG hydrolysis and FFA oxidation”.
